Values after ≈ are worked out from the molar mass of the structure shown. Where two headings read alike, the source gives them in different places.
Legend:
Test in all cases: Bacterial susceptibility testing (MIC, broth microdilution)
Type in all cases: cell-based
[1] = system: K. pneumoniae ATCC13883; settings: Klebsiella pneumoniae
Description: (§1) Minimal inhibitory concentrations (MIC) were determined by the broth microdilution method in accordance with the Clinical and Laboratory Standards Institute (CLSI) guidelines. In brief, organism suspensions were adjusted to a final inoculum between 3×10^5 and 7×10^5 colony-forming units (CFU)/mL. Drug dilutions and inocula were made in sterile, cation adjusted Mueller-Hinton Broth (Beckton Dickinson). In wells, an inoculum volume of 100 μL was mixed to 2 μL of DMSO with 2-fold serial dilutions of drug. All inoculated microdilution trays were incubated in ambient air at 35° C. for 18-24 h. Following incubation, the lowest concentration of the drug that prevented visible growth (OD600 nm<0.05) was recorded as the MIC. Performance of the assay was monitored by the use of laboratory quality -control strains and compounds with defined MIC spectrum, in accordance with CLSI guidelines.

[2] = system: P. aeruginosa PAO1; settings: Pseudomonas aeruginosa
Description: as §1

[3] = system: E. coli ATCC25922; settings: Escherichia coli
Description: as §1

[4] = system: P. aeruginosa ATCC27853; settings: Pseudomonas aeruginosa
Description: as §1

[5] = ATCC13883, broth microdilution, cation adjusted Mueller-Hinton Broth, 35° C., 18-24 h, read-out: K. pneumoniae ATCC13883 MIC
[6] = PAO1, broth microdilution, cation adjusted Mueller-Hinton Broth, 35° C., 18-24 h, read-out: P. aeruginosa PAO1 MIC
[7] = ATCC25922, broth microdilution, cation adjusted Mueller-Hinton Broth, 35° C., 18-24 h, read-out: E. coli ATCC25922 MIC
[8] = ATCC27853, broth microdilution, cation adjusted Mueller-Hinton Broth, 35° C., 18-24 h, read-out: P. aeruginosa ATCC27853 MIC
[9] = ATCC13883, read-out: K. pneumoniae ATCC13883 MIC
[10] = PAO1, read-out: P. aeruginosa PAO1 MIC
[11] = ATCC25922, read-out: E. coli ATCC25922 MIC
[12] = ATCC27853, read-out: P. aeruginosa ATCC27853 MIC

Structure (SMILES)	MIC [1, 5] [µg/mL]	MIC [2, 6] [µg/mL]	MIC [3, 7] [µg/mL]	MIC [4, 8] [µg/mL]	MIC [1, 9] [µg/mL]	MIC [2, 10] [µg/mL]	MIC [3, 11] [µg/mL]	MIC [4, 12] [µg/mL]
C[C@H](O)c1nccn1[C@@H](C#Cc1ccc(-c2ccc(O[C@@H]3COC[C@H]3OC(F)(F)F)cc2)cc1)CO (racemic) [Compound 124, (S)-2-(2-((S)-1-hydroxyethyl)-1H-imidazol-1-yl)-4-(4′-(((rac-trans)-4-(trifluoromethoxy)-tetrahydrofuran-3-yl)oxy)-[1,1′-biphenyl]-4-yl)but-3-yn-1-ol]	4 (≈ 7.96 µM)	8 (≈ 15.9 µM)	2 (≈ 3.98 µM)	> 32				
CC(=O)N[C@H]1C[C@H](c2ccc(-c3ccc(C#C[C@@H](CO)n4ccnc4[C@H](C)O)cc3)cc2)C1 (racemic) [Compound 127, N-((rac-trans)-3-(4′-((S)-4-hydroxy-3-(2-((S)-1-hydroxyethyl)-1H-imidazol-1-yl)but-1-yn-1-yl)-[1,1′-biphenyl]-4-yl)cyclobutyl)acetamide]	1 (≈ 2.25 µM)	1 (≈ 2.25 µM)	0.25 (≈ 0.564 µM)	1 (≈ 2.25 µM)				
C[C@H](O)c1nccn1[C@@H](C#Cc1ccc(-c2ccc(O[C@@H]3C[C@H]3NCC#N)cc2)cc1)CO (racemic) [Compound 141, 2-(((rac-trans)-2-((4′-((S)-4-hydroxy-3-(2-((S)-1-hydroxyethyl)-1H-imidazol-1-yl)but-1-yn-1-yl)-[1,1′-biphenyl]-4-yl)oxy)cyclopropyl)amino) acetonitrile]					1 (≈ 2.26 µM)	2 (≈ 4.52 µM)	1 (≈ 2.26 µM)	8 (≈ 18.1 µM)
C[C@H](O)c1nccn1[C@@H](C#Cc1ccc(-c2ccc(O[C@H]3C[C@@H](CNCC#N)C3)cc2)cc1)CO (racemic) [Compound 142, 2-((((rac-cis)-3-((4′-((S)-4-hydroxy-3-(2-((S)-1-hydroxyethyl)-1H-imidazol-1-yl)but-1-yn-1-yl)-[1,1′-biphenyl]-4-yl)oxy)cyclobutyl)methyl)amino)acetonitrile]					2 (≈ 4.25 µM)	2 (≈ 4.25 µM)	1 (≈ 2.13 µM)	4 (≈ 8.5 µM)
C[C@H](O)c1nccn1[C@@H](C#Cc1ccc(-c2ccc(O[C@H]3COC[C@@H]3O)cc2F)cc1)CO (single isomer, unassigned) [Compound 2]	2 (≈ 4.42 µM)	2 (≈ 4.42 µM)	1 (≈ 2.21 µM)	4 (≈ 8.84 µM)				
C[C@H](O)c1nccn1[C@@H](C#Cc1ccc(-c2ccc(O[C@@H]3COC[C@H]3O)cc2F)cc1)CO (single isomer, unassigned) [Compound 3]	2 (≈ 4.42 µM)	2 (≈ 4.42 µM)	1 (≈ 2.21 µM)	2 (≈ 4.42 µM)				
C[C@H](O)c1nccn1[C@@H](C#Cc1ccc(-c2ccc(OC3COC[C@@H]3O)c(F)c2)cc1)CO (single isomer, unassigned) [Compound 7]	4 (≈ 8.84 µM)	2 (≈ 4.42 µM)	1 (≈ 2.21 µM)	4 (≈ 8.84 µM)				
C[C@H](O)c1nccn1[C@@H](C#Cc1ccc(-c2ccc(OC3COC[C@H]3O)c(F)c2)cc1)CO (single isomer, unassigned) [Compound 8]	4 (≈ 8.84 µM)	2 (≈ 4.42 µM)	2 (≈ 4.42 µM)	4 (≈ 8.84 µM)				
C[C@H](O)c1nccn1[C@@H](C#Cc1ccc(-c2ccc(O[C@@H]3COC[C@H]3O)c(F)c2)c(F)c1)CO (single isomer, unassigned) [Compound 10]	2 (≈ 4.25 µM)	4 (≈ 8.5 µM)	1 (≈ 2.13 µM)	8 (≈ 17 µM)				
C[C@H](O)c1nccn1[C@@H](C#Cc1ccc(-c2ccc(O[C@H]3COC[C@@H]3O)c(F)c2)c(F)c1)CO (single isomer, unassigned) [Compound 11]	4 (≈ 8.5 µM)	4 (≈ 8.5 µM)	1 (≈ 2.13 µM)	8 (≈ 17 µM)				
C[C@H](O)c1nccn1[C@@H](C#Cc1ccc(-c2ccc(O[C@@H]3COC[C@H]3O)c(F)c2F)cc1)CO (single isomer, unassigned) [Compound 13]	4 (≈ 8.5 µM)	4 (≈ 8.5 µM)	2 (≈ 4.25 µM)	16 (≈ 34 µM)				
C[C@H](O)c1nccn1[C@@H](C#Cc1ccc(-c2ccc(O[C@H]3COC[C@@H]3O)c(F)c2F)cc1)CO (single isomer, unassigned) [Compound 14]	4 (≈ 8.5 µM)	4 (≈ 8.5 µM)	2 (≈ 4.25 µM)	8 (≈ 17 µM)				
C[C@H](O)c1nccn1[C@@H](C#Cc1ccc(-c2ccc(CO[C@H]3COC[C@@H]3O)c(F)c2)cc1)CO (single isomer, unassigned) [Compound 45]	2 (≈ 4.29 µM)	2 (≈ 4.29 µM)	1 (≈ 2.14 µM)	4 (≈ 8.57 µM)				
C[C@H](O)c1nccn1[C@@H](C#Cc1ccc(-c2ccc(O[C@@H]3COC[C@H]3O)cc2Cl)cc1)CO (single isomer, unassigned) [Compound 47]	4 (≈ 8.53 µM)	4 (≈ 8.53 µM)	1 (≈ 2.13 µM)	4 (≈ 8.53 µM)				

The next lines start with results.

MIC [1, 5] [µg/mL]	MIC [2, 6] [µg/mL]	MIC [3, 7] [µg/mL]	MIC [4, 8] [µg/mL]	Structure (SMILES)	MIC [1, 9] [µg/mL]	MIC [2, 10] [µg/mL]	MIC [3, 11] [µg/mL]	MIC [4, 12] [µg/mL]
1 (≈ 2.19 µM)	1 (≈ 2.19 µM)	0.5 (≈ 1.1 µM)	4 (≈ 8.76 µM)	C[C@H](O)c1nccn1[C@@H](C#Cc1ccc(-c2ccc(O[C@H]3C[C@H](NCC#N)C3)cc2)cc1)CO (racemic) [Compound 121, 2-(((rac-trans)-3-((4′-((S)-4-hydroxy-3-(2-((S)-1-hydroxyethyl)-1H-imidazol-1-yl)but-1-yn-1-yl)-[1,1′-biphenyl]-4-yl)oxy)cyclobutyl)amino) acetonitrile]				
1 (≈ 2.18 µM)	2 (≈ 4.35 µM)	0.5 (≈ 1.09 µM)	2 (≈ 4.35 µM)	CNC(=O)[C@H]1C[C@H](Oc2ccc(-c3ccc(C#C[C@@H](CO)n4ccnc4[C@H](C)O)cc3)cc2)C1 (racemic) [Compound 122, (rac-trans)-3-((4′-((S)-4-hydroxy-3-(2-((S)-1-hydroxyethyl)-1H-imidazol-1-yl)but-1-yn-1-yl)-[1,1′-biphenyl]-4-yl)oxy)-N-methylcyclobutane-1-carboxamide]				
1 (≈ 2.34 µM)	2 (≈ 4.68 µM)	0.5 (≈ 1.17 µM)	4 (≈ 9.36 µM)	C[C@H](O)c1nccn1[C@@H](C#Cc1ccc(-c2ccc(O[C@H]3C[C@@H](C#N)C3)cc2)cc1)CO (racemic) [Compound 129, (rac-cis)-3-((4′-((S)-4-hydroxy-3-(2-((S)-1-hydroxyethyl)-1H-imidazol-1-yl)but-1-yn-1-yl)-[1,1′-biphenyl]-4-yl)oxy)cyclobutane-1-carbonitrile]				
1 (≈ 2.34 µM)	2 (≈ 4.68 µM)	0.25 (≈ 0.585 µM)	> 32	C[C@H](O)c1nccn1[C@@H](C#Cc1ccc(-c2ccc(O[C@H]3C[C@H](C#N)C3)cc2)cc1)CO (racemic) [Compound 130, (rac-trans)-3-((4′-((S)-4-hydroxy-3-(2-((S)-1-hydroxyethyl)-1H-imidazol-1-yl)but-1-yn-1-yl)-[1,1′-biphenyl]-4-yl)oxy) cyclobutane-1-carbonitrile]				
2 (≈ 4.38 µM)	2 (≈ 4.38 µM)	1 (≈ 2.19 µM)	> 32	C[C@H](O)c1nccn1[C@@H](C#Cc1ccc(-c2ccc(O[C@H]3C[C@@H](NCC#N)C3)cc2)cc1)CO (racemic) [Compound 131, 2-((rac-cis)-3-((4′-((S)-4-hydroxy-3-(2-((S)-1-hydroxyethyl)-1H-imidazol-1-yl)but-1-yn-1-yl)-[1,1′-biphenyl]-4-yl)oxy)cyclobutyl)amino) acetonitrile]				
> 32	4 (≈ 8.07 µM)	2 (≈ 4.04 µM)	4 (≈ 8.07 µM)	C[C@H](O)c1nccn1[C@@H](C#Cc1ccc(-c2ccc(O[C@H]3C[C@@H](NS(C)(=O)=O)C3)cc2)cc1)CO (racemic) [Compound 132, N-((rac-cis)-3-((4′-((S)-4-hydroxy-3-(2-((S)-1-hydroxyethyl)-1H-imidazol-1-yl)but-1-yn-1-yl)-[1,1′-biphenyl]-4-yl)oxy)cyclobutyl)methane-sulfonamide]				
8 (≈ 17 µM)	4 (≈ 8.5 µM)	1 (≈ 2.13 µM)	4 (≈ 8.5 µM)	C[C@H](O)c1nccn1[C@@H](C#Cc1ccc(-c2ccc(O[C@H]3C[C@H](CNCC#N)C3)cc2)cc1)CO (racemic) [Compound 133, 2-((((rac-trans)-3-((4′-((S)-4-hydroxy-3-(2-((S)-1-hydroxyethyl)-1H-imidazol-1-yl)but-1-yn-1-yl)-[1,1′-biphenyl]-4-yl)oxy)cyclobutyl)methyl)amino) acetonitrile]				
2 (≈ 4.51 µM)	2 (≈ 4.51 µM)	0.5 (≈ 1.13 µM)	2 (≈ 4.51 µM)	CC(=O)N[C@H]1C[C@@H](c2ccc(-c3ccc(C#C[C@@H](CO)n4ccnc4[C@H](C)O)cc3)cc2)C1 (racemic) [Compound 135, N-((rac-cis)-3-(4′-((S)-4-hydroxy-3-(2-((S)-1-hydroxyethyl)-1H-imidazol-1-yl)but-1-yn-1-yl)-[1,1′-biphenyl]-4-yl)cyclobutyl)acetamide]				
2 (≈ 4.35 µM)	0.5 (≈ 1.09 µM)	0.5 (≈ 1.09 µM)	1 (≈ 2.18 µM)	CNC(=O)[C@H]1C[C@@H](Oc2ccc(-c3ccc(C#C[C@@H](CO)n4ccnc4[C@H](C)O)cc3)cc2)C1 (racemic) [Compound 137, (rac-cis)-3-((4′-((S)-4-hydroxy-3-(2-((S)-1-hydroxyethyl)-1H-imidazol-1-yl)but-1-yn-1-yl)-[1,1′-biphenyl]-4-yl)oxy)-N-methylcyclobutane-1-carboxamide]				

Reference: patent US20260049092A1, “ANTIBACTERIAL COMPOUNDS” (Blacksmith Medicines, Inc., priority 2022, published 2026)
